The NIST ThermoML archive (doi:10.1021/je901065e)
± gives the expanded uncertainty stated by the source.

Settings: 298.15 K; 101.33 kPa; Liquid

Row | mass density [kg/m3] | Compound
1 | 1202.5 ± 1 | CCCC[n+]1ccccc1C.F[B-](F)(F)F [1-butyl-2-methylpyridinium tetrafluoroborate]
2 | 1183.1 ± 0.9 | CCCC[n+]1ccc(C)cc1.F[B-](F)(F)F [1-butyl-4-methylpyridinium tetrafluoroborate]
3 | 1214 ± 1 | CCCC[n+]1ccccc1.F[B-](F)(F)F [1-butylpyridinium tetrafluoroborate]

Second part, the molecule before the results:

Row | Compound | mass density [kg/m3]
4 | CCCCCC[n+]1ccccc1.F[B-](F)(F)F [1-hexylpyridinium tetrafluoroborate] | 1154.8 ± 0.8
5 | c1ccccc1 [benzene] | 873.4 ± 0.5
6 | Cc1ccccc1 [toluene] | 862.27 ± 0.53
